# Data published in PMC6534296, “Structural analysis of Cytochrome P450 BM3 mutant M11 in complex with dithiothreitol” (PLoS ONE, 2019).
# Molecular target: T1, Cytochrome P450 BM3 (CYP102A1) mutant M11 (Priestia megaterium, UniProt P14779, E144G/E268V/E65G/F82I/F88V/G416S/H286Y/L189Q/R48L/Y199C)
# T1 construct: heme domain (stop codon introduced after residue 473)
# Test: X-ray crystal structure ([…] Å) and UV/Vis difference spectral titration
# Type: binding
# T1 sequence (P14779 1-474 R48L/E65G/F82I/F88V/E144G/L189Q/Y199C/E268V/H286Y/G416S): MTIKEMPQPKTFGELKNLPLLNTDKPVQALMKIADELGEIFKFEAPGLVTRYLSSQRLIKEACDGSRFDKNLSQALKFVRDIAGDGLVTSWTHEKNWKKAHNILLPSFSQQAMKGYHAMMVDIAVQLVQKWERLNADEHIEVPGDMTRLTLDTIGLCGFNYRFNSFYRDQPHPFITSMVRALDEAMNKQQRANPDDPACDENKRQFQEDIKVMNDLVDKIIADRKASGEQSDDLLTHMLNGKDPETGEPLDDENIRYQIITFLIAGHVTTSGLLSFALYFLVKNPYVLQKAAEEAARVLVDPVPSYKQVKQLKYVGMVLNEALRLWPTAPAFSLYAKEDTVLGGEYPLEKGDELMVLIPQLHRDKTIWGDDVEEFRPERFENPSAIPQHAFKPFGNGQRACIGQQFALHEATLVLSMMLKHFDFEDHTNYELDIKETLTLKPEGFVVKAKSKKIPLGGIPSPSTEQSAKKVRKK
structure (smiles),measurement,value
"O[C@@H](CS)[C@@H](O)CS (racemic) [DTT, dithiothreitol]",Kd,56.8 ± 1.3 µM
